Results as given in PMC7461584, “N-(2′-Hydroxyphenyl)-2-Propylpentanamide (HO-AAVPA) Inhibits HDAC1 and Increases the Translocation of HMGB1 Levels in Human Cervical Cancer Cells” (International Journal of Molecular Sciences, 2020).
Several values for one entry are separate records, joined by “and”; a condition that tells them apart may be missing. Equal entries are not always repeated. Entries after “also recorded” stand apart in the source; their conditions may differ.

Key:
HDAC1 = biological target: T1, HDAC1 (Homo sapiens, UniProt Q13547); assay: Fluor de LYS HDAC1 inhibitory activity assay; type: biochemical; conditions: 250 ng/well, 37 °C, 5 µM substrate; mean ± SE
T1 construct: purchased Enzo Life Sciences BML-AK511
T1 sequence (Q13547 whole entry): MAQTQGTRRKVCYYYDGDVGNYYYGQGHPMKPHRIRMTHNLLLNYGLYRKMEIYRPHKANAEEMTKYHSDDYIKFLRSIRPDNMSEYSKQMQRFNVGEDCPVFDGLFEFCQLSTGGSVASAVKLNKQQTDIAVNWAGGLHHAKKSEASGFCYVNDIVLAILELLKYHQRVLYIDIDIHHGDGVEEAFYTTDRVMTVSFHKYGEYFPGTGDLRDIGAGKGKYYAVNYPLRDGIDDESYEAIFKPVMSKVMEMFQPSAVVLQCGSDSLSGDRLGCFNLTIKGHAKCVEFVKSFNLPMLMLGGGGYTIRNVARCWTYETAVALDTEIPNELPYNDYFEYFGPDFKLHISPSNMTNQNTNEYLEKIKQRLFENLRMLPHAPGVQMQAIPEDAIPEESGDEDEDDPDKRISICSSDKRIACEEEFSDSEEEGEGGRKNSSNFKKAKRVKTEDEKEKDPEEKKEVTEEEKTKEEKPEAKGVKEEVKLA

HDAC6 = biological target: T2, HDAC6 (Homo sapiens, UniProt Q9UBN7); assay: Fluor de LYS HDAC6 inhibitory activity assay; type: biochemical
T2 construct: purchased Enzo Life Sciences BML-AK516
T2 sequence (Q9UBN7 1-1215): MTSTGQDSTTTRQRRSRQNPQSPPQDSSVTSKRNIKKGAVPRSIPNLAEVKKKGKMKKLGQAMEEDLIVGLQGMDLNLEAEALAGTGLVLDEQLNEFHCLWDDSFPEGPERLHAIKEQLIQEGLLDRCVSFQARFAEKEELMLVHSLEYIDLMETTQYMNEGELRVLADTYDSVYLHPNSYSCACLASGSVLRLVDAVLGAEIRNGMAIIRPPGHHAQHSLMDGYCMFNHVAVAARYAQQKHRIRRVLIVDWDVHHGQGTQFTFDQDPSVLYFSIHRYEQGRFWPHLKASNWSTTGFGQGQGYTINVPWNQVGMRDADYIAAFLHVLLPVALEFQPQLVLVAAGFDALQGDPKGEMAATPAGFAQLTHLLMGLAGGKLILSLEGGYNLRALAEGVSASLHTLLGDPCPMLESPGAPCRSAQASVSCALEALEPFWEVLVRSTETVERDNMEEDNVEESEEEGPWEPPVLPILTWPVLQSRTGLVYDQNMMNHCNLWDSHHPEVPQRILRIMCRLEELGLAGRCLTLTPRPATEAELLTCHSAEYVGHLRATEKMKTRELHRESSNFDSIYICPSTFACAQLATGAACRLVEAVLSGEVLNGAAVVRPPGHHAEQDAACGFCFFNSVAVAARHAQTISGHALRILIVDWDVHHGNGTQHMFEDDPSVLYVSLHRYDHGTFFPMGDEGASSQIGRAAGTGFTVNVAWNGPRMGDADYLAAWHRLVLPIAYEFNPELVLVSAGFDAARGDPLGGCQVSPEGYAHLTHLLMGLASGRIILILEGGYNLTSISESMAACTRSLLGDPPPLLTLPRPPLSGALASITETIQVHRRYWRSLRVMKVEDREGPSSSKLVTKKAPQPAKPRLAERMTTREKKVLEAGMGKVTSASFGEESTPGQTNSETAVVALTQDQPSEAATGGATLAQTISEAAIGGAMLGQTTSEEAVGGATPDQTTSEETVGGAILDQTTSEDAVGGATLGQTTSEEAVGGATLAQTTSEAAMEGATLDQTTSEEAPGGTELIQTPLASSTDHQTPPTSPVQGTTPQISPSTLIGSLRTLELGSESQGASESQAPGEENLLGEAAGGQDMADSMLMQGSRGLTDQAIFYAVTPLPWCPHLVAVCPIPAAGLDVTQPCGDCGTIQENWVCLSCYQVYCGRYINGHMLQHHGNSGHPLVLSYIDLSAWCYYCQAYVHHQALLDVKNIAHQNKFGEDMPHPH

HDAC8 = biological target: T3, HDAC8 (Homo sapiens, UniProt Q9BY41); assay: Fluor de LYS HDAC8 inhibitory activity assay; type: biochemical
T3 construct: purchased Enzo Life Sciences BML-AK518
T3 sequence (Q9BY41 1-377): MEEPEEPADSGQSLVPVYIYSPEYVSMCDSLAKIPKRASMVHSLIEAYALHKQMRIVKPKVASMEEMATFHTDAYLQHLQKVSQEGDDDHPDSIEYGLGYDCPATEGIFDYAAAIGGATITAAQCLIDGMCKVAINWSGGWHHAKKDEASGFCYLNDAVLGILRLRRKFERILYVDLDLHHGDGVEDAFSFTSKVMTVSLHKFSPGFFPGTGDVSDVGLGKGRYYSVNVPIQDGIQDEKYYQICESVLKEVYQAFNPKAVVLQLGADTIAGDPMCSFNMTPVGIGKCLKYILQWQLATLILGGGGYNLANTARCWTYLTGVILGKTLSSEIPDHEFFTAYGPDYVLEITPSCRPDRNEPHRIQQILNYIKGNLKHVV

[1] = Cell viability by MTT assay; type: cell-based, human; conditions: human, SiHa cells, at 2.5 mM
Experimental: (§1) SiHa cells were kindly donated by Dr. Nicolás Villegas Sepulveda from the Department of Molecular Biomedicine, […], México. SiHa cells were cultured in Dulbecco’s modified Eagle’s medium (DMEM Gibco, Life Technologies, Invitrogen, Sigma-Aldrich Co., Toluca City Mexico), supplemented with 10% fetal bovine serum (FBS, Biowest, Kansas City, MO, USA) and antibiotic and antimycotic agents (Gibco, Fisher Scientific UK Ltd, Loughborough, UK). The cultures were kept at 37 °C in a humidified atmosphere with 5% CO2.
(§2) After seeding 10 × 10^3 cells per well in transparent 96-well plates, the cells were incubated for 24 h in DMEM medium with FBS. Then, the cells were incubated with different concentrations of HO-AAVPA (0.5, 1.0, 1.5, 2.0, and 2.5 mM) and VPA (0.625, 1.25, 2.5, 5.0, and 7.5 mM). After 48 h of incubation, the supernatant was removed. Then, 20 μL of MTT solution (0.5 mg/mL) in buffer was added, and the cells were incubated at 37 °C for 4 h. After the MTT solution was removed from all the wells, the formazan salts were solubilized with 100 μL of DMSO, and the absorbance of each well was read at 550 nm on a spectrophotometer (Multiskan EX Microplate Photometer, Thermo Scientific, Mexico).

SiHa cells = assay: Cell viability by MTT assay; type: cell-based, human; conditions: 48 h
Experimental: as §1, §2

HMGB1 in SiHa cells = assay: Localization of HMGB1 by confocal microscopy; type: cell-based, human; conditions: 12 h; for HMGB1 fluorescence intensity: vs DMSO vehicle
Experimental: A total of 20 × 10^3 cells per well were added to 24-well plates and incubated for 24 h in DMEM with FBS. Then, the cells were washed with phosphate buffered saline (PBS 1X). The groups received the following treatments: VPA at 1.4 and 0.35 mM, HO-AAVPA at 0.2 and 0.005 mM, vehicle (DMSO 0.1%), and incubated for 12 h. After incubation, the cells were fixed with paraformaldehyde (PFA 4%) at 37 °C for 20 min and permeabilized (PBS Tween-Triton 0.5%) for 5 min. Subsequently, the cells were washed and the primary antibody, anti-HMGB1 (GTX101277, GeneTex, Alton Pkwy Irvine, CA, USA), was added at a ratio of 1:1000 and incubated overnight. The secondary antibody, donkey anti-rabbit IgG H&L (Alexa Fluor 647, Thermo Fisher Scientific, México City, Mexico), was added at a ratio of 1:1000 and incubated at 4 °C for 4 h. Finally, the slides were washed with PBS and mounted with Vectashield (Mounting Laboratories, Inc. Burlingame, CA, USA).
The images were collected and analyzed with an Axioskop 2 mot plus confocal fluorescence microscope (Carl Zeiss, Mexico City, Mexico) at EC Plan-Neofluar 20×–40×/0.5 Ph2: LP 650, LP 505.

[2] = tested on: ROS (O2−·) levels in SiHa cells; assay: Quantification of superoxide anion by electronic paramagnetic resonance; type: cell-based, human; conditions: 48 h
Experimental: The SiHa cells (500 × 10^3) were seeded in a […] dish and kept at 37 °C in a humidified atmosphere with 5% CO2 until they reached 70% confluence. After, the cells were treated with two different concentrations of VPA and HO-AAVPA (1.4 and 0.2 mM) and maintained for 48 h, the experiment was performed in triplicate and used as a control for data comparison with the SiHa cells treated only with medium. Next, the cells were trypsinized and centrifuged at 3000 rpm for 10 min, and the cell pellet was treated with the radical scavenger CM-H (1 hydroxy-3-methoxycarbonyl-2,2, 5,5-tetramethyl pyrrolidine) diluted in Krebs buffer (99 mM NaCl, 4.69 mM KCl, 2.5 mM CaCl2 × 2H2O, 1.2 mM MgSO4 × 7 H2O, 2.5 mM NaHCO3, 1.03 mM KH2PO4, 5.6 mM D-Glucose, and 20 mM Na-HEPES) with sodium diethyldithiocarbamate trihydrate (DETEC; 5 μM) and deferoxamine methane sulfonate salt (DF 25 μM) at a 89:3:8% v/v ratio of Krebs buffer: DETEC:DF. The stock solution of CMH (10 mM) was used to dilute each sample to 0.5 mM. The CM-H solution and the sample preparation were processed inside a nitrogen atmosphere chamber. The samples containing CM-H were incubated for 30 min at 37 °C with constant shaking. After the samples were centrifuged at 3000 rpm for 15 min, 50 µL of the supernatant was taken up with capillaries (Corning, Glendale, CA, USA) inside the nitrogen chamber, and each of the capillaries were sealed on both sides to determine the EPR measurements.
The measurements of O2^−· formation were performed in a Bruker e-scan spectrometer with the following parameters recorded: magnetic field 3490 G, window: 60 G, amplitude: 1.5 G, gain: 56.4, power: 0.0155 mW; and frequency: 9.743 GHz. WinEPR Acquisition software was used to analyze the results. The intensity of each sample was measured and normalized to the cell number for each sample. Finally, the result was expressed as the intensity for 10,000 cells.

[3] = parameters: method as in PMID 32387339, PMID 30236821, PMID 3146521; conditions: rat model; ref [19],[20],[21]; cited from earlier work
cervical cancer cells = tested on: cervical cancer cells; parameters: method as in PMID 26942921; conditions: ref [25], cited from earlier work

Row | IC50 (HDAC1) | IC50 (HDAC6; 400 ng/well, 37 °C, 12 µM substrate, mean ± SE) [µM] | IC50 (HDAC8; 1 U/well, 30 °C, 50 µM substrate, mean ± SE) [µM] | SMILES | inhibitory activity on HDAC6 (HDAC6; tested at 1-1000 µM) | inhibitory activity on HDAC8 (HDAC8; tested at 1-1000 µM) | viability at 48 h, 2.5 mM [1] [%] | concentration causing cell death (SiHa cells; concentration-dependent) [mM] | IC50 (SiHa cells; Homo sapiens, SiHa, MTT) [µM] | HMGB1 localization (HMGB1 in SiHa cells; HO-AAVPA 0.2 mM, VPA 1.4 mM) | HMGB1 fluorescence intensity (HMGB1 in SiHa cells; HO-AAVPA 0.2 mM, VPA 1.4 mM) | HMGB1 localization (HMGB1 in SiHa cells; low concentrations: HO-AAVPA 0.005 mM, VPA 0.35 mM) | ROS (O2−·) production ([2]; 0.2 mM) | ROS (O2−·) production ([2]; 1.4 mM) | half-life [3] [h] | concentration that did not produce significant effect on the proliferation (cervical cancer cells; cervical cancer cells) [mM] | concentration with cytotoxic effects (cervical cancer cells; other studies) [µM]
1 | 153 µM and 154 µM | > 1000 | > 1000 | CCCC(CCC)C(=O)Nc1ccccc1O [HO-AAVPA, N-(2′-hydroxyphenyl)-2-propylpentanamide] | no inhibitory activity; also recorded: no inhibition was observed | no inhibitory activity; also recorded: no inhibition was observed | ~25 | ≥ 1 | 1600 | high amount of HMGB1 in the cytoplasm than in the nucleus; also recorded: greater intensity of translocation of HMGB1 from the nucleus to the cytoplasm | increase in the fluorescence was more; also recorded: significant increase of HMGB1; also recorded: statistically higher | more HMGB1 in the cytoplasm than VPA | slightly lower, but still higher than the control | ROS production was greater; also recorded: increased | 4 | – | –
2 | – | – | – | CCCC(CCC)C(=O)O [VPA, valproic acid, reference compound] | – | – | – | – | – | HMGB1 is expressed in a larger amount in the nucleus; also recorded: observed predominantly in the nucleus | increase in the fluorescence was more; also recorded: significant increase of HMGB1 | – | did not have a significant difference in ROS production | did not have a significant difference in ROS production | 1 | 1 | ~3000
